Measurements published in US9957263B2, “Bromodomain inhibitors” (AbbVie Inc., priority 2013, dated 2018).
pEC50, pKi: −log10 of the molar value.

Columns and labels:
BRD4 (BDI_K57-E168) = BRD4 (BDI_K57-E168) (Homo sapiens (Human), UniProt O60885); assay: TR-FRET bromodomain binding assay, BRD4 first bromodomain; conditions: His-tagged BD1, Alexa647-labeled probe 100 nM
In short: (§1)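 His-tagged BRD4 BD1 (K57-E168) or BD2 at 8 nM, 1 nM Eu-anti-His antibody and Alexa647 BET-inhibitor probe (100 nM for BDI, 30 nM for BDII) in pH 6.0 phosphate buffer, 2% DMSO, compound 50 μM-0.85 nM; 1 h at RT, TR-FRET read. IC50 by 4-parameter fit, Ki from probe Kd and concentration.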

BRD4 (BDII_E352-M457) = BRD4 (BDII_E352-M457) (Homo sapiens (Human), UniProt O60885); assay: TR-FRET bromodomain binding assay, BRD4 second bromodomain; conditions: His-tagged BD2, Alexa647-labeled probe 30 nM
In short: as §1

[1] = tested on: breast cancer cell line MX-1; assay: MX-1 cell line proliferation assay, Method B; type: cell-based; conditions: Homo sapiens, MX1; MX-1 cells, 384-well, 72 hours, Cell Titer Glo; read-out: Cellular proliferation: EC50 Method B
Experimental: The impact of compounds of the Examples on cancer cell proliferation was determined using the breast cancer cell line MX-1 (ATCC) in a 3-day proliferation assay and the data are reported in Table 1.
Method B: MX-1 cells were maintained in RPMI 1640 medium (Sigma) supplemented with 10% FBS at 37 C.° and an atmosphere of 5% CO2. For compound testing, MX-1 cells were plated in 384-well white with clear, flat bottom plates at a density of 750 cells/well in 25 μL of culture media and incubated at 370 overnight to allow cell adhesion and spreading. Ten point compound dilution series were prepared in DMSO via a 3-fold serial dilution from either […] or 1 μM stock and added directly to the appropriate wells of the MX-1 cell plate by an ECHO liquid handler (Labcyte). The final compound concentrations in the wells were 10, 3.25, 1, 0.25, 0.124, 0.040, 0.0124, 0.0031, 0.0015 and 0.0005 μM or 1, 0.33, 0.1, 0.025, 0.0124, 0.004, 0.0012, 0.0003, 0.00015, 0.00005 μM, depending on the concentration of the compound stock solution.
Luminescence readings from the Cell Titer Glo assay were normalized to the DMSO treated cells and analyzed using Accelrys Assay Explorer 3.3 software with sigmoidal curve fitting to obtain ECsos. The minimum significant ratio (MSR) was determined to evaluate assay reproducibility (Eastwood et al., (2006) J Biomol Screen, 11: 253-261). The overall MSR was determined to be 3.3 and a moving MSR (last six run MSR overtime) has averaged

Row | pKi (BRD4 (BDI_K57-E168)) | pKi (BRD4 (BDII_E352-M457)) | pEC50 [1] | SMILES
1 | 6.41 | 7.77 | – | CCNC(=O)c1cc2c(-c3cc(S(=O)(=O)CC)ccc3Oc3c(C)cccc3CN3CCC3=O)cn(C)c(=O)c2[nH]1 [Example 157, N-ethyl-4-[5-(ethylsulfonyl)-2-{2-methyl-6-[(2-oxoazetidin-1-yl)methyl]phenoxy}phenyl]-6-methyl-7-oxo-6,7-dihydro-1H-pyrrolo[2,3-c]pyridine-2-carboxamide]
2 | 6.05 | 7.55 | – | CCNC(=O)c1cc2c(-c3cc(S(=O)(=O)CC)ccc3Oc3c(C)cccc3Cn3ccccc3=O)cn(C)c(=O)c2[nH]1 [Example 158, N-ethyl-4-[5-(ethylsulfonyl)-2-{2-methyl-6-[(2-oxopyridin-1(2H)-yl)methyl]phenoxy}phenyl]-6-methyl-7-oxo-6,7-dihydro-1H-pyrrolo[2,3-c]pyridine-2-carboxamide]
3 | 6.64 | 6.81 | – | Cn1cc(-c2cc(S(C)(=O)=O)ccc2Oc2ccc(F)cc2F)c2cc(CNCCC(N)=O)[nH]c2c1=O [Example 159, 3-[({4-[2-(2,4-difluorophenoxy)-5-(methylsulfonyl)phenyl]-6-methyl-7-oxo-6,7-dihydro-1H-pyrrolo[2,3-c]pyridin-2-yl}methyl)amino]propanamide]
4 | 5.77 | 8.00 | – | CCNC(=O)c1cc2c(-c3ccc(C(=O)N(CCC(=O)OC)c4ccccc4)cc3Oc3c(C)cccc3C)cn(C)c(=O)c2[nH]1 [Example 160, methyl 3-[{3-(2,6-dimethylphenoxy)-4-[2-(ethylcarbamoyl)-6-methyl-7-oxo-6,7-dihydro-1H-pyrrolo[2,3-c]pyridin-4-yl]benzoyl}(phenyl)amino]propanoate]
5 | 5.98 | 8.50 | – | CCNC(=O)c1cc2c(-c3ccc(C(=O)N(CCCN4CCOCC4)Cc4ccccc4)cc3Oc3c(C)cccc3C)cn(C)c(=O)c2[nH]1 [Example 161, 4-[4-{benzyl[3-(morpholin-4-yl)propyl]carbamoyl}-2-(2,6-dimethylphenoxy)phenyl]-N-ethyl-6-methyl-7-oxo-6,7-dihydro-1H-pyrrolo[2,3-c]pyridine-2-carboxamide]
6 | < 4.90 | 7.05 | – | CCNC(=O)c1cc2c(-c3ccc(C(=O)N(CCN4CCSCC4)c4ccc(Cl)c(Cl)c4)cc3Oc3c(C)cccc3C)cn(C)c(=O)c2[nH]1 [Example 162, 4-[4-{(3,4-dichlorophenyl)[2-(thiomorpholin-4-yl)ethyl]carbamoyl}-2-(2,6-dimethylphenoxy)phenyl]-N-ethyl-6-methyl-7-oxo-6,7-dihydro-1H-pyrrolo[2,3-c]pyridine-2-carboxamide]
7 | 8.79 | 9.22 | – | CCS(=O)(=O)Nc1ccc(Oc2ccc(F)cc2F)c(-c2cn(C)c(=O)c3[nH]c(C#CCOC)cc23)c1 [Example 163, N-{4-(2,4-difluorophenoxy)-3-[2-(3-methoxyprop-1-yn-1-yl)-6-methyl-7-oxo-6,7-dihydro-1H-pyrrolo[2,3-c]pyridin-4-yl]phenyl}ethanesulfonamide]
8 | – | 7.82 | 5.00 | CCNC(=O)c1cc2c(-c3cc(S(=O)(=O)CC)ccc3Oc3c(C)cccc3CCC3CCCC3)cn(C)c(=O)c2[nH]1 [Example 164, 4-{2-[2-(2-cyclopentylethyl)-6-methylphenoxy]-5-(ethylsulfonyl)phenyl}-N-ethyl-6-methyl-7-oxo-6,7-dihydro-1H-pyrrolo[2,3-c]pyridine-2-carboxamide]
9 | 6.37 | 8.35 | 5.84 | CCNC(=O)c1cc2c(-c3ccc(C(=O)N(CCCN4CCCC4)C(C)Cc4ccccc4)cc3Oc3c(C)cccc3C)cn(C)c(=O)c2[nH]1 (stereo not shown) [Example 165, 4-[2-(2,6-dimethylphenoxy)-4-{(1-phenylpropan-2-yl) [3-(pyrrolidin-1-yl)propyl]carbamoyl}phenyl]-N-ethyl-6-methyl-7-oxo-6,7-dihydro-1H-pyrrolo[2,3-c]pyridine-2-carboxamide]
10 | < 4.90 | 7.76 | 5.52 | CCNC(=O)c1cc2c(-c3ccc(C(=O)N(CC#N)C(C)Cc4ccccc4)cc3Oc3c(C)cccc3C)cn(C)c(=O)c2[nH]1 (stereo not shown) [Example 166, 4-{4-[(cyanomethyl)(1-phenylpropan-2-yl)carbamoyl]-2-(2,6-dimethylphenoxy)phenyl}-N-ethyl-6-methyl-7-oxo-6,7-dihydro-1H-pyrrolo[2,3-c]pyridine-2-carboxamide]
11 | < 4.90 | 7.46 | 5.69 | CCNC(=O)c1cc2c(-c3ccc(C(=O)N(CC#N)CC(C)c4ccccc4)cc3Oc3c(C)cccc3C)cn(C)c(=O)c2[nH]1 (stereo not shown) [Example 167, 4-{4-[(cyanomethyl)(2-phenylpropyl)carbamoyl]-2-(2,6-dimethylphenoxy)phenyl}-N-ethyl-6-methyl-7-oxo-6,7-dihydro-1H-pyrrolo[2,3-c]pyridine-2-carboxamide]
12 | 5.64 | 7.65 | 5.51 | CCNC(=O)c1cc2c(-c3ccc(C(=O)N(CC#N)c4cccc(Cl)c4)cc3Oc3c(C)cccc3C)cn(C)c(=O)c2[nH]1 [Example 168, 4-{4-[(3-chlorophenyl)(cyanomethyl)carbamoyl]-2-(2,6-dimethylphenoxy)phenyl}-N-ethyl-6-methyl-7-oxo-6,7-dihydro-1H-pyrrolo[2,3-c]pyridine-2-carboxamide]
13 | 5.85 | 7.56 | 5.66 | CCNC(=O)c1cc2c(-c3ccc(C(=O)N(CC#N)c4ccc(Cl)cc4)cc3Oc3c(C)cccc3C)cn(C)c(=O)c2[nH]1 [Example 169, 4-{4-[(4-chlorophenyl)(cyanomethyl)carbamoyl]-2-(2,6-dimethylphenoxy)phenyl}-N-ethyl-6-methyl-7-oxo-6,7-dihydro-1H-pyrrolo[2,3-c]pyridine-2-carboxamide]
14 | 6.06 | 8.37 | 5.66 | CCNC(=O)c1cc2c(-c3ccc(C(=O)N(CCN(CC)CC)c4ccccc4C)cc3Oc3c(C)cccc3C)cn(C)c(=O)c2[nH]1 [Example 170, 4-[4-{[2-(diethylamino)ethyl](2-methylphenyl)carbamoyl}-2-(2,6-dimethylphenoxy)phenyl]-N-ethyl-6-methyl-7-oxo-6,7-dihydro-1H-pyrrolo[2,3-c]pyridine-2-carboxamide]
15 | < 4.90 | 7.42 | 5.19 | CCNC(=O)c1cc2c(-c3ccc(C(=O)N(CC#N)c4cccc(C(F)(F)F)c4)cc3Oc3c(C)cccc3C)cn(C)c(=O)c2[nH]1 [Example 171, 4-[4-{(cyanomethyl)[3-(trifluoromethyl)phenyl]carbamoyl}-2-(2,6-dimethylphenoxy)phenyl]-N-ethyl-6-methyl-7-oxo-6,7-dihydro-1H-pyrrolo[2,3-c]pyridine-2-carboxamide]
16 | 6.00 | 8.18 | 5.60 | CCNC(=O)c1cc2c(-c3ccc(C(=O)N(CCCN(C)C)C4CCCCC4)cc3Oc3c(C)cccc3C)cn(C)c(=O)c2[nH]1 [Example 172, 4-[4-{cyclohexyl[3-(dimethylamino)propyl]carbamoyl}-2-(2,6-dimethylphenoxy)phenyl]-N-ethyl-6-methyl-7-oxo-6,7-dihydro-1H-pyrrolo[2,3-c]pyridine-2-carboxamide]
17 | < 4.90 | 7.19 | 5.28 | CCNC(=O)c1cc2c(-c3ccc(C(=O)N(Cc4ccccc4)Cc4ccc(Cl)cc4)cc3Oc3c(C)cccc3C)cn(C)c(=O)c2[nH]1 [Example 173, 4-{4-[benzyl(4-chlorobenzyl)carbamoyl]-2-(2,6-dimethylphenoxy)phenyl}-N-ethyl-6-methyl-7-oxo-6,7-dihydro-1H-pyrrolo[2,3-c]pyridine-2-carboxamide]
